Measured values published in article PMC10302582, “Unveiling the Potential of BenzylethyleneAryl–Urea Scaffolds for the Design of New Onco Immunomodulating Agents” (Pharmaceuticals, 2023).
pIC50: −log10 of the molar value.

Experiments:
HMEC-1 endothelial cells = experiment: Microvessel formation inhibition assay on Matrigel; format: cell-based, human; details: HMEC-1 on Matrigel
Method: The antiangiogenic action of the selected compounds, as well as the reference compounds, was evaluated by determining the effect on the formation of new microvessels formed by HMEC-1 endothelial cells on a Matrigel matrix.
We used IBIDI μ-slide angiogenesis plates (IBIDI, Martins ried, Germany). The wells were coated with 15 μL of Matrigel® (10 mg/mL, BD Biosciences, San Jose, CA, USA) at 4 °C and incubated at 37 °C for at least 30 min. Afterward, the HMEC-1 cells were seeded at 2 × 10^4 cells/well in 25 μL of medium and were left for 30 min at 37 °C while they attached. Then, the compounds were added in serial doses in 25 μL of the medium, and after several hours (maximum 24 h) of incubation at 37 °C, pictures for the wells were taken to evaluate the formation of microvessels.

[1] = tested on: human microvessel endothelial cells (HMEC-1); experiment: MTT cell proliferation assay, HMEC-1; format: cell-based; details: Homo sapiens
Method: (§1) The action on cell proliferation caused by our developed compounds was studied using an MTT assay using the human tumor cell lines of HT-29 (colon adenocarcinoma) and A-549 (pulmonary adenocarcinoma), as well as toward the non-tumor cell line HEK-293 (human embryonic kidney cells), Jurkat T-cells and human microvessel endothelial cells (HMEC-1).
(§2) In general, 5 × 10^3 (HT-29, A549, HMEC-1, Jurkat and HEK-293) cells per well were seeded in 96-well plates with 1:1 dilutions of the compounds in a volume of 100 μL of the cell media. The 3-(4,5-dimethylthiazol-2-yl)-2,5-diphenyltetrazolium bromide (MTT; Sigma Chemical Co.) dye exclusion assay was performed, and after 48 h (37 °C, 5% CO2 in a humid atmosphere), 10 μL of MTT (5 mg/mL in phosphate-buffered saline, PBS) was added to each well and incubated for 3 h at 37 °C. After the supernatant was discarded, we solved the formazan crystal in 100 µL of DMSO. The absorbance was then registered at 550 nm using a plate lector. For all concentrations of any compound, cell viability was expressed as the percentage of the ratio between the mean absorbance of the treated cells and the mean absorbance of the untreated cells. Three to five experiments were performed to establish the IC50 values (i.e., concentration half inhibiting cell proliferation, we used GraphPad Prism 7 software).

[2] = tested on: HT-29 cells co-cultured with THP-1; experiment: Cancer cell proliferation in co-cultures of HT-29 and THP-1; format: cell-based, human; details: 100 μM
Method: To establish the potential of the selected compounds as immunomodulator agents, we studied the effect of the selected compounds on HT-29 cell proliferation when co-cultured with human monocytic leukemia cell line THP-1. For the study, we used different proportions of cancer and immune cells. Standard protocol proportions were 1:5 cancer/immune cells. We include a test using a 2:1 proportion of HT-29 cells to THP-1 cells. The tests were performed for two periods of time: 24 and 48 h, using 100 μM doses of the selected compounds and BMS-8 as the reference compound.
To determine the action of the compounds on cancer cell proliferation in co-culture with immune cells, 10^5 or 2 × 10^5 of the HT-29 cells line were seeded in each well of 12-well plates and left at 37 °C for 24 h. Then, the cancer cells were treated with IFN-γ (10 ng/mL; human, Invitrogen®, Waltham, MA, USA) containing 5 × 10^5 or 10^5, respectively, of THP-1 cells per well and the corresponding compound at 100 μM or DMSO for the positive control. After 24 h/48 h of incubation, the supernatants were collected to establish the alive THP-1 cells using FSC and SCC flow cytometry. In addition, cancer cells were collected with trypsin, fixed with 4% in PBS paraformaldehyde and counted using flow cytometry.

CD11b = CD11b detection on membrane of co-cultured THP-1; format: cell-based, human; details: for % CD11b expression in membrane of THP-1: 1:5 HT-29/THP-1, 24 h, relative to non-treated co-cultured THP-1; for reduction of CD11b expression: THP-1 co-cultured with HT-29
Description: Reducing the expression of CD11b has become a promising target for immune modulation in anticancer therapies. For that reason, we decided to study the effect of our compounds on CD11b in THP-1 cells co-cultured with HT-29. We also determined the relative amount of CD80, a common surface marker for monocytes.
The results are related to non-treated THP-1 cells when they were co-cultured with HT-29.
The action of the compounds on CDs in co-cultured THP-1 immune cells with cancer cell line HT-29 was tested by treating them with the compounds for 24 h/48 h (see Section 4.2.5). Surface CD11b and CD80 was determined by collecting THP-1 with trypsin, fixing with formaldehyde and staining with FITC Mouse monoclonal Anti-Human CD80 (Sigma-Aldrich SAB4700142) and Alexa Fluor® 647 Rabbit monoclonal Anti-CD11b (Merck #MABF366, Rahway, NJ, USA).

Jurkat T-cells = experiment: MTT cell proliferation assay, Jurkat T-cells; format: cell-based; details: Homo sapiens, Jurkat, 48 h treatment
Method: as §1, §2

VEGFR-2 = molecular target: T1, VEGFR-2 (Homo sapiens, UniProt P35968); experiment: VEGFR-2 relative quantification by flow cytometry in HT-29 cells; format: cell-based; details: for total VEGFR-2 (%) expression: HT-29 cells, 24 h, relative to DMSO control = 100
T1 construct: assess the effect of our new ureas on these two proteins only on the HT-29 cancer cell line through the use of flow cytometry; endogenous in cells; host or cells: HT-29
T1 sequence (P35968 20-1356): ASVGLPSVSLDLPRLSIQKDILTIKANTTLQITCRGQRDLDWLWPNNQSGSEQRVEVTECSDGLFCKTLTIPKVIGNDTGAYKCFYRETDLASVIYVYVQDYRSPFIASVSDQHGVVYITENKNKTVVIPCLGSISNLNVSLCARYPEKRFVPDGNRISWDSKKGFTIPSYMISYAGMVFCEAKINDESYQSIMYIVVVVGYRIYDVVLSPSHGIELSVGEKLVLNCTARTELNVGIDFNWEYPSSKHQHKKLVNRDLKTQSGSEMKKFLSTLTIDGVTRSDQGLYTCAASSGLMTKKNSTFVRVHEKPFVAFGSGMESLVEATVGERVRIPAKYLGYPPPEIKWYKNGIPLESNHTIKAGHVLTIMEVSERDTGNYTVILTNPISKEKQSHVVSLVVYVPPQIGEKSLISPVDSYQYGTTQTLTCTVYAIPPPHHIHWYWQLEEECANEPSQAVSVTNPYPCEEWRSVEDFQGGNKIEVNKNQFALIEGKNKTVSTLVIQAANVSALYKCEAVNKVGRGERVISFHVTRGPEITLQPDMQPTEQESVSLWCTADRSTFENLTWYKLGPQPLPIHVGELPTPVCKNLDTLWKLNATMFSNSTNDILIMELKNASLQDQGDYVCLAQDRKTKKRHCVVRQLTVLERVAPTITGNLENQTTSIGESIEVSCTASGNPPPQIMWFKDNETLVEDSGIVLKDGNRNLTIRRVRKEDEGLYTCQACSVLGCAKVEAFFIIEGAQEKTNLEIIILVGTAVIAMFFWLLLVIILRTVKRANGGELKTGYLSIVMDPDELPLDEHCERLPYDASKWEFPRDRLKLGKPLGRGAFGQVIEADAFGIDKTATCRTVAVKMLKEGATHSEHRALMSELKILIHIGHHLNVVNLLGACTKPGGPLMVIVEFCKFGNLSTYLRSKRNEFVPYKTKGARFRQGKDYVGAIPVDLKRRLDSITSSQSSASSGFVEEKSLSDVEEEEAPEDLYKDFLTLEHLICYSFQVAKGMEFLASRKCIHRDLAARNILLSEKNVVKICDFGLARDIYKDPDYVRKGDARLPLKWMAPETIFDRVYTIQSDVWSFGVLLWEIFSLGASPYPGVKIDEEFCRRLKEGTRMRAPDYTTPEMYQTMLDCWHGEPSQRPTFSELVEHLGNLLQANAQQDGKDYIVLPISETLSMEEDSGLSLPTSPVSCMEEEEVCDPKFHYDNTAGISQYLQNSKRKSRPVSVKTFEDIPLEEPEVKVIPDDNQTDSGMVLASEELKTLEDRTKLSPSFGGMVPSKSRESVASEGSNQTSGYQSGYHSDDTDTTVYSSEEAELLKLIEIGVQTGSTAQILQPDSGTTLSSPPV
Method: (§3) The cells were incubated for a period of time of one day with doses of each of the selected compounds at two different doses: 20 and 100 µM concentrations.
(§4) The effects of the compounds on the target in the cancer cell lines compounds were tested using 20 and 100 µM doses. For that, 10^5 cells per well were seeded on a 12-well plate for 24 h with the corresponding dose of the tested compound in a total volume of 500 μL of cell media. To determine the total PD-L1 and VEGFR-2, the cells were collected and fixed with 4% in a PBS of formaldehyde. After this, a treatment with 0.5% in PBS Triton^TM X-100 permeabilized the membranes.
(§5) To determine surface PD-L1 and VEGFR-2, the assay used was similar to the above but avoided the permeabilization step (Triton^TM X-100).

PD-L1 = molecular target: T2, PD-L1 (Homo sapiens, UniProt Q9NZQ7); experiment: PD-L1 relative quantification by flow cytometry in HT-29 cells; format: cell-based; details: for inhibition rate of PD-L1: HT-29, total PD-L1, dose not stated; for total PD-L1 (%) expression: HT-29 cells, 24 h, relative to DMSO control = 100
T2 construct: assess the effect of our new ureas on these two proteins only on the HT-29 cancer cell line through the use of flow cytometry; endogenous in cells; host or cells: HT-29
T2 sequence (Q9NZQ7 19-290): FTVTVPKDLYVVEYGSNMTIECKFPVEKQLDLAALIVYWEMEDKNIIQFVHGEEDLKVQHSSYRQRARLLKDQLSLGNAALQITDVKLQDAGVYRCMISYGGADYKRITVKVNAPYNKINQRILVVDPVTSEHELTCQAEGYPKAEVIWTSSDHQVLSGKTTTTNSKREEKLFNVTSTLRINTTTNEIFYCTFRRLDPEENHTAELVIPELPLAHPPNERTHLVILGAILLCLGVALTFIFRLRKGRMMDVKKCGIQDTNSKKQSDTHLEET
Method: as §3
as §4, with “membranes. Finally, the cells were treated with FITC Mouse monoclonal Anti-Human VEGFR-2 (ab184903) and Alexa Fluor® 647 Rabbit monoclonal Anti-PD-L1 (ab215251).” for “membranes.”
as §5

pIC50 (Jurkat T-cells; 48 h)	total VEGFR-2 (%) expression (VEGFR-2; 20 μM) [%]	total VEGFR-2 (%) expression (VEGFR-2; 100 μM) [%]	inhibition rate of PD-L1 (PD-L1)	total PD-L1 (%) expression (PD-L1; 20 μM) [%]	total PD-L1 (%) expression (PD-L1; 100 μM) [%]	inhibition rate of VEGFR-2 (VEGFR-2; HT-29, total VEGFR-2, dose not stated)	SMILES	Minimum Active Conc. inhibiting microtube formation (HMEC-1 endothelial cells) [µM]	pIC50 ([1]; HMEC-1, 48 h, 48 h treatment)	HT-29 cancer cell proliferation in co-culture ([2]; 1:5 HT-29/THP-1, 24 h)	HT-29 cancer cell proliferation in co-culture ([2]; 1:5 HT-29/THP-1, 48 h)	HT-29 cancer cell proliferation in co-culture ([2]; 2:1 HT-29/THP-1, 24 h)	HT-29 cancer cell proliferation in co-culture ([2]; 2:1 HT-29/THP-1, 48 h)	% CD11b expression in membrane of THP-1 (CD11b) [%]	reduction of CD11b expression (CD11b)	pIC50 ([1]; HMEC-1, 48 h treatment)	pIC50 (Jurkat T-cells)
< 4.00	38 ± 7	40 ± 7	30%	70 ± 4	222 ± 69		COc1ccc(CCCc2cccc(NC(=O)Nc3ccc(F)cc3)c2)cc1 [C.3]	50	< 4.00	78 ± 8	64 ± 3	67 ± 9	57 ± 5	67 ± 22	about 35%		
< 4.00	228 ± 66	32 ± 9	50%	45 ± 11	145 ± 8		COc1ccc(CCCc2cccc(NC(=O)Nc3ccccc3OC)c2)cc1 [C.14]	>100	< 4.00	64 ± 14	68 ± 8	82 ± 7	58 ± 5	66 ± 3	about 35%		
< 4.00	30 ± 10	65 ± 45	around 75%	25 ± 5	96 ± 1	around 75%	COc1ccc(CCCc2cccc(NC(=O)Nc3ccc(OC)cc3)c2)cc1 [C.12]	20	< 4.00	84 ± 2	67 ± 11	93 ± 8	89 ± 10	73 ± 4			

SMILES	pIC50 (Jurkat T-cells; 48 h)	total VEGFR-2 (%) expression (VEGFR-2; 20 μM) [%]	total VEGFR-2 (%) expression (VEGFR-2; 100 μM) [%]	inhibition rate of PD-L1 (PD-L1)	total PD-L1 (%) expression (PD-L1; 20 μM) [%]	total PD-L1 (%) expression (PD-L1; 100 μM) [%]	inhibition rate of VEGFR-2 (VEGFR-2; HT-29, total VEGFR-2, dose not stated)	Minimum Active Conc. inhibiting microtube formation (HMEC-1 endothelial cells) [µM]	pIC50 ([1]; HMEC-1, 48 h, 48 h treatment)	HT-29 cancer cell proliferation in co-culture ([2]; 1:5 HT-29/THP-1, 24 h)	HT-29 cancer cell proliferation in co-culture ([2]; 1:5 HT-29/THP-1, 48 h)	HT-29 cancer cell proliferation in co-culture ([2]; 2:1 HT-29/THP-1, 24 h)	HT-29 cancer cell proliferation in co-culture ([2]; 2:1 HT-29/THP-1, 48 h)	% CD11b expression in membrane of THP-1 (CD11b) [%]	reduction of CD11b expression (CD11b)	pIC50 ([1]; HMEC-1, 48 h treatment)	pIC50 (Jurkat T-cells)
COc1ccc(CCCc2cccc(NC(=O)Oc3ccccc3)c2)cc1 [C.1]		51 ± 10	191 ± 87	30%	70 ± 16	91 ± 7		5		48 ± 8	52 ± 3	70 ± 8	66 ± 8	79 ± 9		< 4.00	< 4.00
